In patent publication US10155775B2, “Substituted amino six-membered saturated heteroalicycles as long-acting DPP-IV inhibitors” (Centaurus Biopharma Co., Ltd., priority 2015, dated 2018):
Like-named read-outs stand apart in the source and are kept apart here. Values belong to the compound of their own block, whether it stands above or below them.

Experiments:
CYP3A4 = CYP3A4 (Homo sapiens (Human), UniProt P08684); assay: IC50 of inhibiting CYP enzyme system, human liver microsomes; format: in vitro ADME
Chain of CYP3A4 (P08684 whole entry): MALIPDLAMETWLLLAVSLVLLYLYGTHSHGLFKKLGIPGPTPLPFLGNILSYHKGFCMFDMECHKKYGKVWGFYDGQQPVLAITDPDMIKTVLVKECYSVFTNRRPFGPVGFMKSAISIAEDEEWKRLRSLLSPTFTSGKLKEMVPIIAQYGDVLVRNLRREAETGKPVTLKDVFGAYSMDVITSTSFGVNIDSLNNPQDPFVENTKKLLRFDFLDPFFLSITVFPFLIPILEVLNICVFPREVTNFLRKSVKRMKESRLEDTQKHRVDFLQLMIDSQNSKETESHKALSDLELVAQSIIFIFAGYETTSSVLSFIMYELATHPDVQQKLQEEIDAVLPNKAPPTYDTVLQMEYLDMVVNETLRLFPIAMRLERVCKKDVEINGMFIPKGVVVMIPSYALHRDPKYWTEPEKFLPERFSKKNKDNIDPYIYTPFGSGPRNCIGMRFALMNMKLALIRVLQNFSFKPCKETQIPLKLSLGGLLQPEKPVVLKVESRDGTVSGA
Experimental: (§1) IC50 values of compounds of the present application in inhibiting CYP enzyme system were determined by using the following method.
(§2) Human liver microsomes frozen at −80° C. in refrigerator were placed on ice for thawing, of which 100 μL was placed in a constant temperature oscillator for incubation (1 hour) at 60° C. and 100 rpm when immediately thawing, and the rest was frozen immediately in refrigerator at −80° C. After one hour, 100 μL inactivated liver microsomes were taken out, and thereto was added 400 μL phosphate buffer, and uniformly mixed to form a 4 mg/mL solution of inactivated liver microsomes. Meanwhile, human liver microsomes frozen at −80° C. in refrigerator were placed on ice for thawing, of which 100 μL was taken out when immediately thawing, and thereto was added 400 μL phosphate buffer, and uniformly mixed to form a 4 mg/mL solution of liver microsomes. The incubation mixtures for a positive control, test compounds and a negative control were prepared according to Table 3 below:
(§3) The above incubation mixtures were incubated for 5 minutes in a constant temperature oscillator at 37° C. and 100 rpm.
(§4) To 2.5 μL working solution of the test compounds or positive control (the negative control was added to the working solution of the test compounds) were added 91.5 μL the incubation mixtures and 6 μL NADPH solution, and then the reaction was initiated via vortex. The resulting solutions were incubated in a constant temperature oscillator at 37° C. and 100 rpm, and the incubation time was shown in Table 4 below:
(§5) Samples from the terminated reaction were centrifuged at 12000 rpm for 10 minutes, and supernatants were taken out for analysis.
(§6) Analyst 1.4.2 or equivalent software was used for data processing. Integrals were detected to ensure that all peaks were properly integrated, and if necessary, adjust integral parameters.
(§7) The quantification of an analyte was defined as a ratio of a peak area of the analyte to that of the internal standard.

CYP2B6 = CYP2B6 (Homo sapiens (Human), UniProt P20813); assay: as above; format: in vitro ADME; conditions: read-out: IC50 in inhibiting CYP Enzyme System 2B6
Chain of CYP2B6 (P20813 whole entry): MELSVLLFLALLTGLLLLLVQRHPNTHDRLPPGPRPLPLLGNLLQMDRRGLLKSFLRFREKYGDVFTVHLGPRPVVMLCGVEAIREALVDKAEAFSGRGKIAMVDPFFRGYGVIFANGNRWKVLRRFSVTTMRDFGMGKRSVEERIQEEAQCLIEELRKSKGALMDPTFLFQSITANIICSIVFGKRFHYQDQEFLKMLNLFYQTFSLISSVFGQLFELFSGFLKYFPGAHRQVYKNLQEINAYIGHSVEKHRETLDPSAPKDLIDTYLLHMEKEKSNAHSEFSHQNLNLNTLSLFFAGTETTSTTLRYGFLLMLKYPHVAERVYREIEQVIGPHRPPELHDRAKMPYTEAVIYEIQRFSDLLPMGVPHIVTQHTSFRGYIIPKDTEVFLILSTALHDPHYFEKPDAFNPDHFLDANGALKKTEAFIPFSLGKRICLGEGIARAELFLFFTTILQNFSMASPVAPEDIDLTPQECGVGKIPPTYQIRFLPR
Experimental: as §1, §2, §3, §4, §5, §6, §7

CYP2C8 = CYP2C8 (Homo sapiens (Human), UniProt P10632); assay: as above; format: in vitro ADME; conditions: read-out: IC50 in inhibiting CYP Enzyme System 2C8
Chain of CYP2C8 (P10632 whole entry): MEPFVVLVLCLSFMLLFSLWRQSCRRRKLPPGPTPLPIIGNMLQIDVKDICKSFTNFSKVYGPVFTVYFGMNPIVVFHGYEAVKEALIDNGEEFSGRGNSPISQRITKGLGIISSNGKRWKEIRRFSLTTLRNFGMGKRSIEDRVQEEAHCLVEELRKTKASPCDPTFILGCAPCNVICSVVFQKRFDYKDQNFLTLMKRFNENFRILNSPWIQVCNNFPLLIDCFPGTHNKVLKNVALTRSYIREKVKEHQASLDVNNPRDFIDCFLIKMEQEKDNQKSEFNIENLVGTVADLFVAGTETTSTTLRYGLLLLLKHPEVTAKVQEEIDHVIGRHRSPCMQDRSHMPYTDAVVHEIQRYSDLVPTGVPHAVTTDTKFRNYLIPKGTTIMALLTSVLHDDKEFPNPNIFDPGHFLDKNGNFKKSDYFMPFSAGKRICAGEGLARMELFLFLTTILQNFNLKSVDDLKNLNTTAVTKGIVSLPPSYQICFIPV
Experimental: as §1, §2, §3, §4, §5, §6, §7

CYP2C9 = CYP2C9 (Homo sapiens (Human), UniProt P11712); assay: as above; format: in vitro ADME; conditions: read-out: IC50 in inhibiting CYP Enzyme System 2C9
Chain of CYP2C9 (P11712 whole entry): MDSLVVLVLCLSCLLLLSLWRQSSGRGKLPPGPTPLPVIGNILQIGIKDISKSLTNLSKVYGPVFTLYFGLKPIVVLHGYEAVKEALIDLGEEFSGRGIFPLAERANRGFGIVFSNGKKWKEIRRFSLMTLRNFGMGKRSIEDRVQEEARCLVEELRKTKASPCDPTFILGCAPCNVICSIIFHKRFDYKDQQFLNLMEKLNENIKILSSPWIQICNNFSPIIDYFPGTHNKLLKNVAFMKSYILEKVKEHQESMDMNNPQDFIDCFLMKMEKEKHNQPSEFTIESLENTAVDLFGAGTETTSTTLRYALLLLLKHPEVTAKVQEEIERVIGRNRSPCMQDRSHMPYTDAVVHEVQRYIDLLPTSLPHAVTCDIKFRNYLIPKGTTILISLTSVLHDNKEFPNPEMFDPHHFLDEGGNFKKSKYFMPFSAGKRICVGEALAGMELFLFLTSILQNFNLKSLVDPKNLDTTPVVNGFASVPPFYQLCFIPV
Experimental: as §1, §2, §3, §4, §5, §6, §7

CYP1A2 = CYP1A2 (Homo sapiens (Human), UniProt P05177); assay: as above; format: in vitro ADME; conditions: read-out: IC50 in inhibiting CYP Enzyme System 1A2
Chain of CYP1A2 (P05177 whole entry): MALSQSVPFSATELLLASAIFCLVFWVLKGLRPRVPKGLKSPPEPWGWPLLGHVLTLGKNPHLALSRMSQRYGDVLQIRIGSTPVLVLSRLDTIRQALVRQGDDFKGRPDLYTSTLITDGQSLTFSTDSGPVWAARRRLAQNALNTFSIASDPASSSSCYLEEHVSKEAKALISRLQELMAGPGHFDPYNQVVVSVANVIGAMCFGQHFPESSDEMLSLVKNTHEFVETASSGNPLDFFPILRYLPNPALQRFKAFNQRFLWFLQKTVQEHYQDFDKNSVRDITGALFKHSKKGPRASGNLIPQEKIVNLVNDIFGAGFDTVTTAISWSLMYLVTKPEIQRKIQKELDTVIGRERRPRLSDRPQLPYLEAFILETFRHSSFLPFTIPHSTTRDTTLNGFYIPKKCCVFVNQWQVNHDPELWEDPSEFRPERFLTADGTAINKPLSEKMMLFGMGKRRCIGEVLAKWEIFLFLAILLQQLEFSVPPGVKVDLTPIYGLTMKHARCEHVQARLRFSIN
Experimental: as §1, §2, §3, §4, §5, §6, §7

CYP2C19 = CYP2C19 (Homo sapiens (Human), UniProt P33261); assay: as above; format: in vitro ADME; conditions: read-out: IC50 in inhibiting CYP Enzyme System 2C19
Chain of CYP2C19 (P33261 whole entry): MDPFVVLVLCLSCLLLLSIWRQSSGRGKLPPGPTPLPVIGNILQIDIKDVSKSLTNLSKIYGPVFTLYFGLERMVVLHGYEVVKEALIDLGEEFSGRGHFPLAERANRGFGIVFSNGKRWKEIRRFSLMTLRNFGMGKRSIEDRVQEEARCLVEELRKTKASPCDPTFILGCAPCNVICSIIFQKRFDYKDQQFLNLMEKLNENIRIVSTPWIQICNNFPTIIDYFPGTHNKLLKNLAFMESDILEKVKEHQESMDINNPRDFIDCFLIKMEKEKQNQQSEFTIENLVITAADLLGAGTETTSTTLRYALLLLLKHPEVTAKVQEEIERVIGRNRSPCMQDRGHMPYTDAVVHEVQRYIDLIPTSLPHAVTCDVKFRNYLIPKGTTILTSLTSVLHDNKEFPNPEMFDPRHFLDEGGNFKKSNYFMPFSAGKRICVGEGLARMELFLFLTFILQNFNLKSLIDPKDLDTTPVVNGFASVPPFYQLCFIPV
Experimental: as §1, §2, §3, §4, §5, §6, §7

[1] = Measuring pharmacokinetics parameters in rats after intragastric administration; format: in vivo; conditions: male, plasma; rat, PO, 5 mg/kg, 20% sulfobutyl-β-cyclodextrin
Experimental: The pharmacokinetic parameters of compounds of the present application were determined by using the following method.
Healthy male adult rats (7-9 weeks old) were used in this study. Each group of animals (3 male rats) was intragastrically administered once at a single dose of 5 mg/kg. The animals in the intragastric administration group were fasted overnight before this study. The fasting time period was from 10 hours before administration to 4 hours after administration.
Blood samples were taken at 0.25, 0.5, 1, 2, 4, 6, 8 and 24 h after administration. The animals were anesthetized with isoflurane using an animal anesthesia machine, and then 0.3 mL whole blood samples were taken from the fundus venous plexus. The blood samples were placed in heparin anticoagulant tubes, and centrifuged for 5 min at 4° C. and 4000 rpm. The resulting plasmas were transferred to centrifuge tubes, and stored at −80° C. until analysis.
Verified LC-MS/MS method was used to analyze the plasma samples. Plasma concentration-time data of animals were analyzed using WinNonlin (Professional Edition, version 6.3; Pharsight Company) software. The non-compartmental model was introduced for concentration analysis.

CYP2D6 = CYP2D6 (Homo sapiens (Human), UniProt P10635); assay: biochemical; format: in vitro ADME; conditions: human liver microsomes; read-out: IC50 in inhibiting CYP Enzyme System 2D6
Chain of CYP2D6 (P10635 whole entry): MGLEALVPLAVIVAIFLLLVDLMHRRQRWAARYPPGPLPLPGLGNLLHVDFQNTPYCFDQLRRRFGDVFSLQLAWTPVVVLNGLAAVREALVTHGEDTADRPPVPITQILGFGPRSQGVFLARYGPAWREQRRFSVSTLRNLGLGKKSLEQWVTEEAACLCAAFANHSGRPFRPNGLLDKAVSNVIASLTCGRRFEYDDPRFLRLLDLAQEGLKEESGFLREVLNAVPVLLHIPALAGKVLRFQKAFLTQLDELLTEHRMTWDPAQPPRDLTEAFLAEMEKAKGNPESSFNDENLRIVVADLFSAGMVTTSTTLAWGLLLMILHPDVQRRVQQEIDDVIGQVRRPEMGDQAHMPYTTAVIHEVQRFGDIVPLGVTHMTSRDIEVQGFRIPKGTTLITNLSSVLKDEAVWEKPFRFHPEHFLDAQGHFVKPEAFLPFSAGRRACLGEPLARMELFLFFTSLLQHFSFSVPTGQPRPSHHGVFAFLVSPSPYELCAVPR
Experimental: as §1
as §2, with “below: […]” for “below:”
as §6, §7

[2] = Liver microsome metabolic stability (rat); format: in vitro ADME; conditions: rat liver microsomes, read-out: Half Life t1/2, liver microsome metabolic stability (converted)
Experimental: (§8) 8 μL human liver microsomes (20 mg/mL), 20 μL NADPH and 368 μL of 0.1 M phosphate buffer were mixed, and then pre-incubated at 37° C. for 5 minutes. 4 μL working solutions (test compounds or positive control) were added, respectively. When pre-incubated at 37° C., 50 μL incubation solutions were taken out at 0, 10, 20, 30, 45 and 60 minute, and thereto was added a 150 μL solution of internal standard ([…]) in acetonitrile. 4 μL rat liver microsomes (20 mg/mL), 10 μL NADPH and 184 μL of 0.1 M phosphate buffer were mixed, and then pre-incubated at 37° C. for 5 minutes. 2 μL working solutions (test compounds or positive control) were added, respectively. When pre-incubated at 37° C., 20 μL incubation solutions were taken out at 0, 10, 20, 30, 45 and 60 minute, and thereto was added a 180 μL solution of internal standard (0.25 M warfarin) in acetonitrile. All samples were vortexed and centrifuged at 4000 rpm for 15 min, and 150 μL supernatants were added to a 96-well plate, and then 5 μL supernatants were detected in LC/MS/MS system. Chromatographic column for analysis was C18 1.7 μm 2.1×50 mm (Waters). Triple quadrupole mass spectrometry (API4000, AB Company) was used in detection. A ratio of the peak area of CT-1225 to that of the internal standard was detected in positive ion mode. […]

[3] = Liver microsome metabolic stability (human); format: in vitro ADME; conditions: human liver microsomes, read-out: Half Life t1/2, liver microsome metabolic stability (converted)
Experimental: as §8

serum DPP-IV = serum DPP-IV (Mus musculus (Mouse), UniProt P28843); assay: in vivo; conditions: for response vs control in vivo at 30 mg/kg: po, read-out: Specific activity of DPP-IV
Chain of serum DPP-IV (P28843 37-760): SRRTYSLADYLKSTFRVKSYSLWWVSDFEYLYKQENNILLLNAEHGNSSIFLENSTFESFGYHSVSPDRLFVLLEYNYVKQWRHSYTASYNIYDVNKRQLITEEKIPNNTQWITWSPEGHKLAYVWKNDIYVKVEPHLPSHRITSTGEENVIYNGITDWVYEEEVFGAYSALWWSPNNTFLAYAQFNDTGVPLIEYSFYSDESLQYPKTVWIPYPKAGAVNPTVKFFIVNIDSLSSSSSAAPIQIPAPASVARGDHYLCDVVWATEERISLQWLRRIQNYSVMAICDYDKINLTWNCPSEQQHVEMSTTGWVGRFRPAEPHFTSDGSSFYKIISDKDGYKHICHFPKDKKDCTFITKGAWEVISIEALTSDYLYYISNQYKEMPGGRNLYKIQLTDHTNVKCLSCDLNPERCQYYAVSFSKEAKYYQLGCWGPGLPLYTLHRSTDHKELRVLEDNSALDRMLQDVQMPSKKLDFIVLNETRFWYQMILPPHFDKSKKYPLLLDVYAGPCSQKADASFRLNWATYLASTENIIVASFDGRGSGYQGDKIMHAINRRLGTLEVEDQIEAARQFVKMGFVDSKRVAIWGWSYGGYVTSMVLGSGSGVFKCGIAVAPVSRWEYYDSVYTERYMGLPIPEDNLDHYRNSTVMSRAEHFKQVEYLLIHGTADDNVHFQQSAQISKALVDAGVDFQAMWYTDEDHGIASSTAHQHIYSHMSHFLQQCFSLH

IC50 (CYP3A4; substrate Midazolam, read-out: IC50 in inhibiting CYP Enzyme System 3A4_Mid): > 25 µM | IC50 (CYP3A4; substrate Testosterone, read-out: IC50 in inhibiting CYP Enzyme System 3A4_Tes): > 25 µM | IC50 (CYP2B6): > 25 µM | IC50 (CYP2C8): > 25 µM | IC50 (CYP2C9): > 25 µM | IC50 (CYP1A2): > 25 µM | IC50 (CYP2C19): > 25 µM | AUC(0-inf) [1]: 45600 ng·h/mL | Cmax [1]: 4390 ng/mL | Tmax [1]: 1.67 h | half-life [1]: 17.1 h | IC50 (CYP2D6): > 25 µM | half-life [2]: 8.26 h | half-life [3]: 4.52 h
Structure (SMILES): CS(=O)(=O)c1ccc2c(c1)CN([C@H]1CO[C@H](c3cc(F)ccc3F)[C@@H](N)C1)C2 [Example 4, (2R,3S,5R)-5-(5-methylsulfonylisoindolin-2-yl)-2-(2,5-difluorophenyl)tetrahydro-2H-pyran-3-amine]

AUC(0-inf) [1]: 52200 ng·h/mL | Cmax [1]: 5960 ng/mL | Tmax [1]: 2 h | half-life [1]: 32.5 h
Structure (SMILES): N[C@H]1C[C@@H](N2Cc3ccc(S(=O)(=O)C4CC4)cc3C2)CO[C@@H]1c1cc(F)ccc1F [Example 9, (2R,3S,5R)-5-(5-cyclopropylsulfonylisoindolin-2-yl)-2-(2,5-difluorophenyl) tetrahydro-2H-pyran-3-amine]

response vs control in vivo at 30 mg/kg (serum DPP-IV; 2 h): 8.4% | response vs control in vivo at 30 mg/kg (serum DPP-IV; 4 h): 7.4% | response vs control in vivo at 30 mg/kg (serum DPP-IV; 10 h): 9.1% | response vs control in vivo at 30 mg/kg (serum DPP-IV; 24 h): 15.6% | response vs control in vivo at 30 mg/kg (serum DPP-IV; 34 h): 20.2% | response vs control in vivo at 30 mg/kg (serum DPP-IV; 48 h): 45.5% | response vs control in vivo at 30 mg/kg (serum DPP-IV; 58 h): 41.2% | response vs control in vivo at 30 mg/kg (serum DPP-IV; 72 h): 58.4% | response vs control in vivo at 30 mg/kg (serum DPP-IV; 96 h): 68% | inhibition at 30 mg/kg (serum DPP-IV; read-out: inhibitory rate of serum DPP-IV activity in mice): > 70% | half-life [2]: 21.1 h | half-life [3]: 4.09 h
Structure (SMILES): CS(=O)(=O)n1cc2c(n1)CN([C@H]1CO[C@H](c3cc(F)ccc3F)[C@@H](N)C1)C2 [Omarigliptin]
